According to article PMC7311426, “An amphipathic peptide with antibiotic activity against multidrug-resistant Gram-negative bacteria” (Nature Communications, 2020):
In brackets after ≈: the same amount, converted by molar mass. Where two headings read alike, the source gives them in different places.

Experiments:
Experiment in all cases: microbe, parasite or virus in culture
[1] = test system: S. enterica Typhi; details: Salmonella enterica, ATCC14028 / TYPHI, read-out: BMD MIC
Summary of the method: (§1)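 MICs were scored by eye after 18-20 h static incubation at 37 °C, with bacteria at 5 × 10^5 CFU mL^−1 in MHB. Peptides were serially diluted 2-fold over 12 points, top 128 or 64 μg mL^−1. CAMHB (CLSI) and 1% agarose-MHB variants were also run, at least six replicates.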

[2] = test system: E. coli; details: Escherichia coli
Summary of the method: as §1

[3] = test system: K. pneumoniae; details: Klebsiella pneumoniae
Summary of the method: as §1

[4] = test system: P. aeruginosa; details: Pseudomonas aeruginosa, mode of 6 replicates
Summary of the method: as §1

[5] = test system: S. aureus
Summary of the method: as §1

[6] = test system: A. baumannii; details: Acinetobacter baumannii, ATCC19636, read-out: BMD MIC, A. baumannii ATCC 19636 type strain; MHB; mode of 6 replicates
Summary of the method: as §1

[7] = BAA2146, read-out: BMD MIC, K. pneumoniae BAA-2146, MDR, ESBL, NDM-1 pos, MHB, mode of 6 replicates

Row | SMILES | MIC [1] [µg/mL] | MIC ([2]; ATCC25922, read-out: BMD MIC, E. coli ATCC 25922 FDA control strain, CAMHB, mode of 6 replicates) [µg/mL] | MIC ([2]; ATCC25922, read-out: BMD MIC, E. coli ATCC 25922 FDA control strain, MHB, mode of 6 independent biological replicates) [µg/mL] | MIC ([2]; ATCC700926 / MG1655, read-out: BMD MIC) [µg/mL] | MIC ([2]; ATCC700928, read-out: BMD MIC, E. coli ATCC 700928 CFT073 UPEC, CAMHB, mode of 6 replicates) [µg/mL] | MIC ([2]; read-out: BMD MIC) [µg/mL] | MIC ([3]; ATCC13883, read-out: BMD MIC, K. pneumoniae ATCC 13883 type strain (polymyxin/colistin heteroresistant), MHB, mode of 6 replicates) [µg/mL] | MIC [3, 7] [µg/mL] | MIC ([4]; ATCC27853, read-out: BMD MIC, P. aeruginosa ATCC 27853 control strain, CAMHB) [µg/mL] | MIC ([4]; ATCC27853, read-out: BMD MIC, P. aeruginosa ATCC 27853 control strain, MHB) [µg/mL] | BMD MIC ([5]; S. aureus ATCC 25923 MSSA, CAMHB, mode of 6 replicates) [µg/mL] | MIC ([5]; Staphylococcus aureus, ATCC25923 / MSSA, read-out: BMD MIC) [µg/mL] | MIC [6] [µg/mL] | MIC ([3]; ATCC13883, read-out: BMD MIC) [µg/mL] | MIC ([3]; ATCC700603, read-out: BMD MIC, K. pneumoniae ATCC 700603 (K6), MDR, OXA-2/SHV-18, MHB, mode of 6 replicates) [µg/mL] | MIC ([4]; read-out: BMD MIC, P. aeruginosa FADDI-070, MDR, PmxR, MHB/CAMHB) [µg/mL]
1 | O=C(O)c1cn(C2CC2)c2cc(N3CCNCC3)c(F)cc2c1=O [Ciprofloxacin, ciprofloxacin] | 0.004 (≈ 0.0121 µM) | ≤ 0.25 | ≤ 0.25 | ≤ 0.25 | ≤ 0.25 | ≤ 0.25 | ≤ 0.25 | > 64 | ≤ 0.25 | 0.5 (≈ 1.51 µM) | – | – | – | – | – | –
2 | COc1cc(Cc2cnc(N)nc2N)cc(OC)c1OC [Trimethoprim] | – | – | – | – | – | – | – | > 64 | – | – | 2 | 2 (≈ 6.89 µM) | 16 (≈ 55.1 µM) | 1 (≈ 3.44 µM) | 4 (≈ 13.8 µM) | 64 (≈ 220 µM)
